Test results published in US5106407A, “Iodones and methods for antimicrobial use” (priority 1989, dated 1992).

How the values were obtained:
[1] = test system: bacteria listed in Table I, Klebsiella oxytoca, Enterobacter gergoviae, Pseudomonas putida #1, and Pseudomonas putida #2; experiment: protein shampoo preservation test
Protocol: (§1) Fifty gram aliquots of the latex were placed in sterile bottles and one hundred gram aliquots of the diluted cutting oil were placed in 250-mL Erlenmeyer flasks. An appropriate amount of a fresh 1 percent stock solution of (2-nitrophenyl)-iodonium 2,2-dimethyl-4,6-dioxo-1,3-dioxan-5-ylide in acetone-water was added to achieve the desired final concentrations (see Tables 5 and 6). A small portion of the respective latex or cutting oil preparation was then streaked onto Tryptic Soy Agar (TSA) petri plates using sterile cotton swabs to determine whether the preparations were sterile. If the particular preparation was sterile, it was then inoculated with an appropriate volume (0.1 mL for the latex and 0.2 mL for the cutting oil) of a mixture of equal aliquots of 24 hr cultures of each of the bacterial organisms listed in Table 1 (not the fungi and yeast). The latex samples were incubated at 30° C. and the cutting oils were agitated on a rotary shaker at room temperature. After 24 hr, all samples were again streaked on TSA. All plates were then incubated at 30° C. for 48 hr and then rated 1 to 10 according to the growth rating system described in Table 4.
(§2) The results from this first set of streaks after inoculation are listed in the columns labeled streak number 1 in Tables 5 and 6. Samples with a rating of 3 or less from streak number 1 were reinoculated as described for the first inoculation above. Samples with a rating of 4 or greater were not reinoculated. After another 24 hr all samples were again restreaked on TSA agar. The results from these second streaks were labeled streak number 2 in Tables 5 and 6. Samples were reinoculated and restreaked in this fashion for a maximum of 10 streaks. Any samples with two streaks in a row with a ten rating were not restreaked again.
The ingredients of the hand creme, hand lotion, and protein shampoo are listed in Tables 7, 8 and 9, respectively. In the cosmetic preservative procedures, the stock solution of (2-nitrophenyl)-iodonium 2,2-dimethyl-4,6-dioxo-1,3-dioxan-5-ylide) was made in dimethylformamide (DMF)/water solution. In addition to the bacteria listed in Table I, the following bacteria were also included in the inocula: Klebsiella oxytoca, Enterobacter gergoviae, Pseudomonas putida #1, and Pseudomonas putida #2.

[2] = test system: mixture of bacterial organisms listed in Table 1; experiment: latex preservation test
Protocol: The latex was a vinylidene chloride-butadiene copolymer with a pH of 6.1.
as §1, §2

Measured: growth rating

CC1(C)OC(=O)[C-]([I+]c2ccccc2[N+](=O)[O-])C(=O)O1 [Example 19, (2-Nitrophenyl)-iodonium 2,2-dimethyl-4,6-dioxo-1,3-dioxan-5-ylide]
4 (11-25): [1]; 100 ppm, streak 10
9: [2]; 25 ppm, streak 2
1 (0): [1]; 10 ppm, streak 1 | [1]; 10 ppm, streak 2 | [1]; 10 ppm, streak 10 | [1]; 25 ppm, streak 1 | [1]; 25 ppm, streak 2 | [1]; 25 ppm, streak 3 | [1]; 25 ppm, streak 4 | [1]; 25 ppm, streak 5 | [1]; 25 ppm, streak 6 | [1]; 25 ppm, streak 7 | [1]; 25 ppm, streak 8 | [1]; 25 ppm, streak 9 | [1]; 25 ppm, streak 10 | [1]; 50 ppm, streak 1 | [1]; 50 ppm, streak 2 | [1]; 50 ppm, streak 3 | [1]; 50 ppm, streak 4 | [1]; 50 ppm, streak 5 | [1]; 50 ppm, streak 6 | [1]; 50 ppm, streak 7 | [1]; 50 ppm, streak 8 | [1]; 50 ppm, streak 9 | [1]; 50 ppm, streak 10 | [1]; 100 ppm, streak 1 | [1]; 100 ppm, streak 2 | [1]; 100 ppm, streak 3 | [1]; 100 ppm, streak 4 | [1]; 100 ppm, streak 5 | [1]; 100 ppm, streak 6 | [1]; 100 ppm, streak 7 | [1]; 100 ppm, streak 8 | [1]; 100 ppm, streak 9 | [2]; 25 ppm, streak 1 | [2]; 25 ppm, streak 3 | [2]; 25 ppm, streak 4 | [2]; 25 ppm, streak 5 | [2]; 25 ppm, streak 6 | [2]; 25 ppm, streak 7 | [2]; 25 ppm, streak 8 | [2]; 50 ppm, streak 1 | [2]; 50 ppm, streak 3 | [2]; 50 ppm, streak 4 | [2]; 50 ppm, streak 5 | [2]; 50 ppm, streak 6 | [2]; 50 ppm, streak 7 | [2]; 50 ppm, streak 8 | [2]; 50 ppm, streak 9 | [2]; 50 ppm, streak 10 | [2]; 100 ppm, streak 1 | [2]; 100 ppm, streak 3 | [2]; 100 ppm, streak 4 | [2]; 100 ppm, streak 5 | [2]; 100 ppm, streak 6 | [2]; 100 ppm, streak 7 | [2]; 100 ppm, streak 8 | [2]; 100 ppm, streak 9 | [2]; 100 ppm, streak 10 | [2]; 250 ppm, streak 1 | [2]; 250 ppm, streak 2 | [2]; 250 ppm, streak 3 | [2]; 250 ppm, streak 4 | [2]; 250 ppm, streak 5 | [2]; 250 ppm, streak 6 | [2]; 250 ppm, streak 7 | [2]; 250 ppm, streak 8 | [2]; 250 ppm, streak 9 | [2]; 250 ppm, streak 10 | [2]; 500 ppm, streak 1 | [2]; 500 ppm, streak 2 | [2]; 500 ppm, streak 3 | [2]; 500 ppm, streak 4 | [2]; 500 ppm, streak 5 | [2]; 500 ppm, streak 6 | [2]; 500 ppm, streak 7 | [2]; 500 ppm, streak 8 | [2]; 500 ppm, streak 9 | [2]; 500 ppm, streak 10 | [2]; 1000 ppm, streak 1 | [2]; 1000 ppm, streak 2 | [2]; 1000 ppm, streak 3 | [2]; 1000 ppm, streak 4 | [2]; 1000 ppm, streak 5 | [2]; 1000 ppm, streak 6 | [2]; 1000 ppm, streak 7 | [2]; 1000 ppm, streak 8 | [2]; 1000 ppm, streak 9 | [2]; 1000 ppm, streak 10
